Data reported in PMC11676667, “Pharmacokinetics of Oral Cannabinoid Δ8-Tetrahydrocannabivarin and Its Main Metabolites in Healthy Participants” (Pharmaceuticals, 2024).
Where two headings read alike, the source gives them in different places.

How the values were obtained:
[1] = Plasma pharmacokinetics after single oral dose of Δ8-THCV in MCT oil (LC-MS/MS, non-compartmental analysis); type: in vivo, human; design: Clast (last quantifiable concentration): unit not given here; conditions: for plasma concentration: Predose; for concentration at 0.5 h / concentration at 1 h / concentration at 2 h / concentration at 4 h / concentration at 6 h / concentration at 8 h / AUC(0-t) / Cmax / MRT / Tmax: human; for concentration at 0.5 h / concentration at 1 h / concentration at 2 h / concentration at 4 h / concentration at 6 h / concentration at 8 h: oral; for AUC(0-t) / Cmax / MRT / Tmax: po; for MRT: read-out: MRT (mean residence time); for Tmax: read-out: tmax
Procedure, shortened: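 Healthy participants received single oral Δ8-THCV in MCT oil (50 mg/mL; 12.5-200 mg, or placebo) after a high-fat, high-calorie breakfast, with ≥1-week washout. Plasma (K2EDTA) sampled predose and 0.5-8 h post-dose, assayed by validated LC-MS/MS including metabolites; PK by non-compartmental analysis, sub-LLOQ values set to 0.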

CB2 receptors = system: CB2 receptors; design: method as in PMID 21470208; conditions: in vitro; cited from earlier work
[2] = 12.5 mg single oral Δ8-THCV in MCT oil, plasma, Mean (±SD)
[3] = 12.5 mg single oral Δ8-THCV in MCT oil, plasma, Median (Range)
[4] = 25 mg single oral Δ8-THCV in MCT oil, plasma, Mean (±SD)
[5] = 25 mg single oral Δ8-THCV in MCT oil, plasma, Median (Range)
[6] = 50 mg single oral Δ8-THCV in MCT oil, plasma, Mean (±SD)
[7] = 50 mg single oral Δ8-THCV in MCT oil, plasma, Median (Range)
[8] = 100 mg single oral Δ8-THCV in MCT oil, plasma, Mean (±SD)
[9] = 100 mg single oral Δ8-THCV in MCT oil, plasma, Median (Range)
[10] = 200 mg single oral Δ8-THCV in MCT oil, plasma, Mean (±SD)
[11] = 200 mg single oral Δ8-THCV in MCT oil, plasma, Median (Range)
[12] = plasma, 12.5 mg, 12.5 mg Δ8-THCV dose, Mean (SD, %CV)
[13] = plasma, 12.5 mg, 12.5 mg Δ8-THCV dose, Median (IQ Range)
[14] = plasma, 25 mg, 25 mg Δ8-THCV dose, Mean (SD, %CV)
[15] = plasma, 25 mg, 25 mg Δ8-THCV dose, Median (IQ Range)
[16] = plasma, 50 mg, 50 mg Δ8-THCV dose, Mean (SD, %CV)
[17] = plasma, 50 mg, 50 mg Δ8-THCV dose, Median (IQ Range)
[18] = plasma, 100 mg, 100 mg Δ8-THCV dose, Mean (SD, %CV)
[19] = plasma, 100 mg, 100 mg Δ8-THCV dose, Median (IQ Range)
[20] = plasma, 200 mg, 200 mg Δ8-THCV dose, Mean (SD, %CV)
[21] = plasma, 200 mg, 200 mg Δ8-THCV dose, Median (IQ Range)
[22] = plasma, 12.5 mg, 12.5 mg single oral Δ8-THCV in MCT oil, Mean (±SD)
[23] = plasma, 12.5 mg, 12.5 mg single oral Δ8-THCV in MCT oil, Median (Range)
[24] = plasma, 12.5 mg, 12.5 mg single oral Δ8-THCV in MCT oil, plasma, Mean (±SD)
[25] = plasma, 12.5 mg, 12.5 mg single oral Δ8-THCV in MCT oil, plasma, Median (Range)
[26] = plasma, 25 mg, 25 mg single oral Δ8-THCV in MCT oil, Mean (±SD)
[27] = plasma, 25 mg, 25 mg single oral Δ8-THCV in MCT oil, Median (Range)
[28] = plasma, 25 mg, 25 mg single oral Δ8-THCV in MCT oil, plasma, Mean (±SD)
[29] = plasma, 25 mg, 25 mg single oral Δ8-THCV in MCT oil, plasma, Median (Range)
[30] = plasma, 50 mg, 50 mg single oral Δ8-THCV in MCT oil, Mean (±SD)
[31] = plasma, 50 mg, 50 mg single oral Δ8-THCV in MCT oil, Median (Range)
[32] = plasma, 50 mg, 50 mg single oral Δ8-THCV in MCT oil, plasma, Mean (±SD)
[33] = plasma, 50 mg, 50 mg single oral Δ8-THCV in MCT oil, plasma, Median (Range)
[34] = plasma, 100 mg, 100 mg single oral Δ8-THCV in MCT oil, Mean (±SD)
[35] = plasma, 100 mg, 100 mg single oral Δ8-THCV in MCT oil, Median (Range)
[36] = plasma, 100 mg, 100 mg single oral Δ8-THCV in MCT oil, plasma, Mean (±SD)
[37] = plasma, 100 mg, 100 mg single oral Δ8-THCV in MCT oil, plasma, Median (Range)
[38] = plasma, 200 mg, 200 mg single oral Δ8-THCV in MCT oil, Mean (±SD)
[39] = plasma, 200 mg, 200 mg single oral Δ8-THCV in MCT oil, Median (Range)
[40] = plasma, 200 mg, 200 mg single oral Δ8-THCV in MCT oil, plasma, Mean (±SD)
[41] = plasma, 200 mg, 200 mg single oral Δ8-THCV in MCT oil, plasma, Median (Range)

CCCc1cc(O)c2c(c1)OC(C)(C)[C@@H]1CC=C(CO)C[C@@H]21 (racemic) [11-OH-Δ8-THCV, (±)-11-hydroxy-Δ8-THCV]
Clast (last quantifiable concentration) [1, 2]: 0.8 (±0.2) | tlast (time to last quantifiable concentration) [1, 2]: 3.6 (±1.7) | Clast (last quantifiable concentration) [1, 3]: 0.8 (0.6–1.1) | tlast (time to last quantifiable concentration) [1, 3]: 4 (2–6) | Clast (last quantifiable concentration) [1, 4]: 0.8 (±0.1) | tlast (time to last quantifiable concentration) [1, 4]: 4.3 (±1.8) | Clast (last quantifiable concentration) [1, 5]: 0.8 (0.6–1) | tlast (time to last quantifiable concentration) [1, 5]: 4 (2–6) | Clast (last quantifiable concentration) [1, 6]: 0.9 (±0.3) | tlast (time to last quantifiable concentration) [1, 6]: 7.8 (±0.6) | Clast (last quantifiable concentration) [1, 7]: 0.8 (0.6–1.5) | tlast (time to last quantifiable concentration) [1, 7]: 8 (6–8) | Clast (last quantifiable concentration) [1, 8]: 1.4 (±0.9) | tlast (time to last quantifiable concentration) [1, 8]: 7.6 (±1.2) | Clast (last quantifiable concentration) [1, 9]: 1.1 (0.5–3.8) | tlast (time to last quantifiable concentration) [1, 9]: 8 (4–8) | Clast (last quantifiable concentration) [1, 10]: 3.7 (±2.6) | tlast (time to last quantifiable concentration) [1, 10]: 8 (±0) | Clast (last quantifiable concentration) [1, 11]: 3.1 (1.2–11.3) | tlast (time to last quantifiable concentration) [1, 11]: 8 (8–8) | plasma concentration ([1]; 12.5 mg Δ8-THCV dose, Mean (SD, %CV)): 0 (±0, --) ng/mL | plasma concentration ([1]; 12.5 mg Δ8-THCV dose, Median (IQ Range)): 0 (0–0) ng/mL | plasma concentration ([1]; 25 mg Δ8-THCV dose, Mean (SD, %CV)): 0 (±0, --) ng/mL | plasma concentration ([1]; 25 mg Δ8-THCV dose, Median (IQ Range)): 0 (0–0) ng/mL | plasma concentration ([1]; 50 mg Δ8-THCV dose, Mean (SD, %CV)): 0 (±0, --) ng/mL | plasma concentration ([1]; 50 mg Δ8-THCV dose, Median (IQ Range)): 0 (0–0) ng/mL | plasma concentration ([1]; 100 mg Δ8-THCV dose, Mean (SD, %CV)): 0 (±0, --) ng/mL | plasma concentration ([1]; 100 mg Δ8-THCV dose, Median (IQ Range)): 0 (0–0) ng/mL | plasma concentration ([1]; 200 mg Δ8-THCV dose, Mean (SD, %CV)): 0 (±0, --) ng/mL | plasma concentration ([1]; 200 mg Δ8-THCV dose, Median (IQ Range)): 0 (0–0) ng/mL | median AUClast ratio Δ8-THCV-COOH/Δ8-THCV/11-OH-Δ8-THCV ([1]; after the 200 mg dose, Δ8-THCV = 1): 0.18 | concentration at 0.5 h [1, 12]: 0 ng/mL | concentration at 0.5 h [1, 13]: 0 ng/mL | concentration at 1 h [1, 12]: 0 ng/mL | concentration at 1 h [1, 13]: 0 ng/mL | concentration at 2 h [1, 12]: 0.1 ng/mL | concentration at 2 h [1, 13]: 0 ng/mL | concentration at 4 h [1, 12]: 0.1 ng/mL | concentration at 4 h [1, 13]: 0 ng/mL | concentration at 6 h [1, 12]: 0.1 ng/mL | concentration at 6 h [1, 13]: 0 ng/mL | concentration at 8 h [1, 12]: 0 ng/mL | concentration at 8 h [1, 13]: 0 ng/mL | concentration at 0.5 h [1, 14]: 0 ng/mL | concentration at 0.5 h [1, 15]: 0 ng/mL | concentration at 1 h [1, 14]: 0.1 ng/mL | concentration at 1 h [1, 15]: 0 ng/mL | concentration at 2 h [1, 14]: 0.3 ng/mL | concentration at 2 h [1, 15]: 0 ng/mL | concentration at 4 h [1, 14]: 0.2 ng/mL | concentration at 4 h [1, 15]: 0 ng/mL | concentration at 6 h [1, 14]: 0.2 ng/mL | concentration at 6 h [1, 15]: 0 ng/mL | concentration at 8 h [1, 14]: 0 ng/mL | concentration at 8 h [1, 15]: 0 ng/mL | concentration at 0.5 h [1, 16]: 0 ng/mL | concentration at 0.5 h [1, 17]: 0 ng/mL | concentration at 1 h [1, 16]: 0.1 ng/mL | concentration at 1 h [1, 17]: 0 ng/mL | concentration at 2 h [1, 16]: 0.4 ng/mL | concentration at 2 h [1, 17]: 0 ng/mL | concentration at 4 h [1, 16]: 0.6 ng/mL | concentration at 4 h [1, 17]: 0 ng/mL | concentration at 6 h [1, 16]: 1 ng/mL | concentration at 6 h [1, 17]: 0.9 ng/mL | concentration at 8 h [1, 16]: 0.6 ng/mL | concentration at 8 h [1, 17]: 0.6 ng/mL | concentration at 0.5 h [1, 18]: 0 ng/mL | concentration at 0.5 h [1, 19]: 0 ng/mL | concentration at 1 h [1, 18]: 1.4 ng/mL | concentration at 1 h [1, 19]: 0.5 ng/mL | concentration at 2 h [1, 18]: 1.8 ng/mL | concentration at 2 h [1, 19]: 1 ng/mL | concentration at 4 h [1, 18]: 2.1 ng/mL | concentration at 4 h [1, 19]: 1.3 ng/mL | concentration at 6 h [1, 18]: 2.4 ng/mL | concentration at 6 h [1, 19]: 1.5 ng/mL | concentration at 8 h [1, 18]: 1.3 ng/mL | concentration at 8 h [1, 19]: 1.1 ng/mL | concentration at 0.5 h [1, 20]: 0 ng/mL | concentration at 0.5 h [1, 21]: 0 ng/mL | concentration at 1 h [1, 20]: 1.2 ng/mL | concentration at 1 h [1, 21]: 0 ng/mL | concentration at 2 h [1, 20]: 4.5 ng/mL | concentration at 2 h [1, 21]: 1.8 ng/mL | concentration at 4 h [1, 20]: 5.2 ng/mL | concentration at 4 h [1, 21]: 3.4 ng/mL | concentration at 6 h [1, 20]: 4.6 ng/mL | concentration at 6 h [1, 21]: 3.7 ng/mL | concentration at 8 h [1, 20]: 3.7 ng/mL | concentration at 8 h [1, 21]: 3.1 ng/mL | AUC(0-t) [1, 22]: 0.7 ng·h/mL | Cmax [1, 22]: 0.8 ng/mL | AUC(0-t) [1, 23]: 0.8 ng·h/mL | Cmax [1, 23]: 0.8 ng/mL | MRT [1, 24]: 1.5 h | Tmax [1, 24]: 3.4 h | MRT [1, 25]: 1.4 h | Tmax [1, 25]: 4 h | AUC(0-t) [1, 26]: 1.5 ng·h/mL | Cmax [1, 26]: 0.9 ng/mL | AUC(0-t) [1, 27]: 0.8 ng·h/mL | Cmax [1, 27]: 0.8 ng/mL | MRT [1, 28]: 3.6 h | Tmax [1, 28]: 3.7 h | MRT [1, 29]: 3.6 h | Tmax [1, 29]: 4 h | AUC(0-t) [1, 30]: 6.2 ng·h/mL | Cmax [1, 30]: 2 ng/mL | AUC(0-t) [1, 31]: 5.3 ng·h/mL | Cmax [1, 31]: 1.9 ng/mL | MRT [1, 32]: 5.7 h | Tmax [1, 32]: 5 h | MRT [1, 33]: 6.1 h | Tmax [1, 33]: 6 h | AUC(0-t) [1, 34]: 13.9 ng·h/mL | Cmax [1, 34]: 4.3 ng/mL | AUC(0-t) [1, 35]: 12.4 ng·h/mL | Cmax [1, 35]: 3.4 ng/mL | MRT [1, 36]: 4.6 h | Tmax [1, 36]: 4.2 h | MRT [1, 37]: 4.3 h | Tmax [1, 37]: 5 h | AUC(0-t) [1, 38]: 30.8 ng·h/mL | Cmax [1, 38]: 8.7 ng/mL | AUC(0-t) [1, 39]: 29.5 ng·h/mL | Cmax [1, 39]: 6.4 ng/mL | MRT [1, 40]: 4.8 h | Tmax [1, 40]: 4.7 h | MRT [1, 41]: 4.7 h | Tmax [1, 41]: 4 h | number of positive plasma samples ([1]; of 504 plasma samples from 15 participants after oral Δ8-THCV): 157 | concentration in representative plasma sample ([1]; one subject after oral Δ8-THCV in MCT oil, Figure A1): 11.8 ng/mL | tmax later after doses greater than 50 mg compared to the 12.5 mg and 25 mg doses ([1]; oral Δ8-THCV, plasma): 1.3 fold | CB2 receptor activation (CB2 receptors): activate CB2 receptors
